Data published in US9107411B2, “Indolecarboxamides and benzimidazolecarboxamides as insecticides and acaricides” (BAYER INTELLECTUAL PROPERTY GMBH, priority 2011, dated 2015).
Where two headings read alike, the source gives them in different places.

How the values were obtained:
Tetranychus urticae = assay: Tetranychus test, OP-resistant (TETRUR spray treatment); assay type: in vivo; details: bean leaf discs, after 6 days
Description: Tetranychus Test, OP-Resistant (TETRUR Spray Treatment)
Solvent: 78.0 parts by weight of acetone • • 1.5 parts by weight of dimethylformamide
Emulgator: 0.5 part by weight of alkylaryl polyglycol ether
To produce an appropriate active ingredient formulation, 1 part by weight of active ingredient is mixed with the stated amounts of solvent and emulsifier, and the concentrate is diluted with emulsifier-containing water to the desired concentration.
Discs of bean leaves (Phaseolus vulgaris) infested by all stages of the red spider mite (Tetranychus urticae) are sprayed with an active ingredient formulation of the desired concentration.
After 6 days, the efficacy in % is determined. 100% means that all of the spider mites have been killed; 0% means that none of the spider mites have been killed.

Phaedon cochleariae = assay: Phaedon test (PHAECO spray treatment); assay type: in vivo; details: Chinese cabbage leaf discs, after 7 days
Description: Phaedon Test ([…] Spray Treatment) Solvent: 78.0 parts by weight of acetone • • 1.5 parts by weight of dimethylformamide Emulsifier: 0.5 part by weight of alkylaryl polyglycol ether To produce an appropriate active ingredient formulation, 1 part by weight of active ingredient is mixed with the stated amounts of solvent and emulsifier, and the concentrate is diluted with emulsifier-containing water to the desired concentration. Leaf discs of Chinese cabbage (Brassica pekinensis) are sprayed with an active ingredient formulation of the desired concentration and, after drying, populated with larvae of the mustard beetle (Phaedon cochleariae). After 7 days, the efficacy in % is determined. 100% means that all of the beetle larvae have been killed; 0% means that none of the beetle larvae have been killed.

Spodoptera frugiperda = Spodoptera frugiperda test (SPODFR spray treatment); assay type: in vivo; details: maize leaf discs, after 7 days
Description: Spodoptera frugiperda Test (SPODFR Spray Treatment) Solvent: 78.0 parts by weight of acetone • • 1.5 parts by weight of dimethylformamide To produce an appropriate active ingredient formulation, 1 part by weight of active ingredient is mixed with the stated amounts of solvent and emulsifier, and the concentrate is diluted with emulsifier-containing water to the desired concentration. Leaf discs of maize (Zea mays) are sprayed with an active ingredient formulation of the desired concentration and, after drying, populated with caterpillars of the armyworm (Spodoptera frugiperda). After 7 days, the efficacy in % is determined 100% means that all of the caterpillars have been killed; 0% means that none of the caterpillars have been killed.

logP (HPLC-MS) = assay type: physicochemical
[1] = HPLC, reversed-phase column (C18), acidic range pH 2.7, acetonitrile (0.1% formic acid)/water gradient, 43° C., calibration with unbranched alkan-2-ones, read-out: log p
[2] = HPLC, reversed-phase column (C18), acidic range pH 2.7, acetonitrile (0.1% formic acid)/water gradient, 43° C., calibration with unbranched alkan-2-ones
[3] = HPLC, reversed-phase column (C18), 43° C., acidic range pH 2.7, EEC directive 79/831 Annex V.A8, two values = both regioisomers (G = N)

Structure (SMILES)	efficacy in % (Tetranychus urticae; application rate 100 g/ha) [%]	efficacy in % (Phaedon cochleariae; application rate 100 g/ha) [%]	efficacy in % (Spodoptera frugiperda; application rate 100 g/ha) [%]	log p (logP (HPLC-MS); [2])	other results
CCn1c(C(=O)NC(c2cccc(C(F)(F)F)c2)C(F)(F)F)nc2cc(C(=O)NC3CC3)c(Cl)cc21 (stereo not drawn) [Compound 4, 6-chloro-N^5-cyclopropyl-1-ethyl-N^2-{2,2,2-trifluoro-1-[3-(trifluoromethyl)phenyl]ethyl}-1H-benzimidazole-2,5-dicarboxamide]					efficacy in % (Tetranychus urticae; application rate 500 g/ha): 100%; pest or weed control at 500 g/ha (Phaedon cochleariae; Phaedon cochleariae, foliar, 168 h, application rate 500 g/ha, read-out: efficacy in %): 100%; efficacy in % (Spodoptera frugiperda; application rate 500 g/ha): 100%; chromatographic logP (logP (HPLC-MS); [1]): 3.67; chromatographic logP (logP (HPLC-MS); HPLC-MS): 3.71
CCn1c(C(=O)NC(c2cccc(C(F)(F)F)c2)C(F)(F)F)cc2cc(C(=O)NC(C)C#N)c(Cl)cc21 (stereo not drawn) [Compound 9]	90	100	100	3.72	
CCn1c(C(=O)NC(c2cc(Cl)cc(Cl)c2)C(F)(F)F)cc2cc(C(=O)NC3(C#N)CC3)c(Cl)cc21 (stereo not drawn) [Compound 43]	100	100	100	4.14	
Cn1c(C(=O)NC(c2cccc(Cl)c2)C(F)(F)F)cc2cc(C(=O)NC3(C#N)CC3)c(Cl)cc21 (stereo not drawn) [Compound 46]	100	100		3.31	
Cn1c(C(=O)NC(c2cccc(Br)c2)C(F)(F)F)cc2cc(C(=O)NC3CC3)c(Cl)cc21 (stereo not drawn) [Compound 47]	90	100		3.42	
Cn1c(C(=O)NC(c2ccc(F)c(Br)c2)C(F)(F)F)cc2cc(C(=O)NC3CC3)c(Cl)cc21 (stereo not drawn) [Compound 51]	100	100	100	3.61	
Cn1c(C(=O)NC(c2ccc(F)c(Cl)c2)C(F)(F)F)cc2cc(C(=O)NC3CC3)c(Cl)cc21 (stereo not drawn) [Compound 53]	100	100	100	3.42	
C#CCn1c(C(=O)NC(c2cccc(Cl)c2)C(F)(F)F)cc2cc(C(=O)NC3(C#N)CC3)c(Cl)cc21 (stereo not drawn) [Compound 58]	100	100	100	3.42	
C#CCn1c(C(=O)NC(c2cccc(Br)c2)C(F)(F)F)cc2cc(C(=O)NC3CC3)c(Cl)cc21 (stereo not drawn) [Compound 59]	100		100	3.44	
C#CCn1c(C(=O)NC(c2cccc(Br)c2)C(F)(F)F)cc2cc(C(=O)NC3(C#N)CC3)c(Cl)cc21 (stereo not drawn) [Compound 60]	100	100	100	3.48	
C#CCn1c(C(=O)NC(c2ccc(F)c(Cl)c2)C(F)(F)F)cc2cc(C(=O)NC3(C#N)CC3)c(Cl)cc21 (stereo not drawn) [Compound 64]	100	100	100	3.41	
C#CCn1c(C(=O)NC(c2cc(Cl)cc(Cl)c2)C(F)(F)F)cc2cc(C(=O)NC3CC3)c(Cl)cc21 (stereo not drawn) [Compound 65]	100		100	3.90	
C#CCn1c(C(=O)NC(c2cc(Cl)cc(Cl)c2)C(F)(F)F)cc2cc(C(=O)NC3(C#N)CC3)c(Cl)cc21 (stereo not drawn) [Compound 66]	100	100	100	3.87	
CCn1c(C(=O)NC(c2cccc(Cl)c2)C(F)(F)F)cc2cc(C(=O)NC3CC3)c(C)cc21 (stereo not drawn) [Compound 184]	100	100	100	3.57	
CCn1c(C(=O)NC(c2cccc(Cl)c2)C(F)(F)F)cc2cc(C(=O)NC3(C#N)CC3)c(C)cc21 (stereo not drawn) [Compound 185]	100	100	100	3.58	
CCn1c(C(=O)NC(c2ccc(F)c(C(F)(F)F)c2)C(F)(F)F)cc2cc(C(=O)NC3(C#N)CC3)c(C)cc21 (stereo not drawn) [Compound 189]	100	100	100	3.77	
CCn1c(C(=O)NC(c2cccc(C(F)(F)F)c2)C(F)(F)F)cc2cc(C(=O)NCCC#N)c(Cl)cc21 (stereo not drawn) [Compound 263]	100	100	100	3.53	
C#CCC(C#N)NC(=O)c1cc2cc(C(=O)NC(c3cccc(C(F)(F)F)c3)C(F)(F)F)n(CC)c2cc1Cl (stereo not drawn) [Compound 268]	100	100	100	3.91	
N#CC1(NC(=O)c2cc3cc(C(=O)NC(c4cccc(C(F)(F)F)c4)C(F)(F)F)n(CC4CC4)c3cc2Cl)CC1 (stereo not drawn) [Compound 272]	100	100	100	4.03	
CCn1c(C(=O)NC(c2cccc(C(F)(F)F)c2)C(F)(F)F)cc2cc(C(=O)NC3(C(N)=S)CC3)c(Cl)cc21 (stereo not drawn) [Compound 273, N^5-(1-carbamothioylcyclopropyl)-6-chloro-1-ethyl-N^2-{2,2,2-trifluoro-1-[3-(trifluoromethyl)phenyl]ethyl}-1H-indole-2,5-dicarboxamide]	100		100		pest or weed control at 100 g/ha (Phaedon cochleariae; Phaedon cochleariae, foliar, 168 h, application rate 100 g/ha, read-out: efficacy in %): 100%; chromatographic logP (logP (HPLC-MS); [1]): 3.56; chromatographic logP (logP (HPLC-MS); HPLC-MS): 3.56
N#CC1(NC(=O)c2cc3cc(C(=O)NC(c4cccc(C(F)(F)F)c4)C(F)(F)F)n(C4CCC4)c3cc2Cl)CC1 (stereo not drawn) [Compound 274]				4.03	efficacy in % (Tetranychus urticae; application rate 500 g/ha): 100%; efficacy in % (Phaedon cochleariae; application rate 500 g/ha): 100%; efficacy in % (Spodoptera frugiperda; application rate 500 g/ha): 100%
C#CCn1c(C(=O)NC(c2cc(Cl)c(Cl)c(Cl)c2)C(F)(F)F)cc2cc(C(=O)NC3(C#N)CC3)c(Cl)cc21 (stereo not drawn) [Compound 277]	90	100	100	4.24	
C#CCn1c(C(=O)NC(c2cccc(OC(F)F)c2)C(F)(F)F)cc2cc(C(=O)NC3CC3)c(Cl)cc21 (stereo not drawn) [Compound 278]	90	100	100	3.32	
N#CC1(NC(=O)c2cc3cc(C(=O)NC(c4cccc(C(F)(F)F)c4)C(F)(F)F)n(COCc4ccccc4)c3cc2Cl)CC1 (stereo not drawn) [Compound 286]	100	100			log p (logP (HPLC-MS); [3]): 4.17
N#CCn1c(C(=O)NC(c2cccc(C(F)(F)F)c2)C(F)(F)F)cc2cc(C(=O)NC3(C#N)CC3)c(Cl)cc21 (stereo not drawn) [Compound 294]		100			efficacy in % (Tetranychus urticae; application rate 500 g/ha): 100%; log p (logP (HPLC-MS); [3]): 3.30
CCn1c(C(=O)NC(c2ccc3c(c2)OC(F)(F)O3)C(F)(F)F)cc2cc(C(=O)NC3CC3)c(C)cc21 (stereo not drawn) [Compound 307]		100	100		log p (logP (HPLC-MS); [3]): 3.81
C=CCN(C(=O)c1cc2nc(C(=O)NC(c3cccc(C(F)(F)F)c3)C(F)(F)F)n(CC=C)c2cc1Cl)C1CC1 (stereo not drawn) [Compound 309]					efficacy in % (Phaedon cochleariae; application rate 500 g/ha): 83%; efficacy in % (Spodoptera frugiperda; application rate 500 g/ha): 100%; log p (logP (HPLC-MS); [3]): 4.74
CCn1c(C(=O)NC(c2cc(Cl)cc(Cl)c2)C(F)(F)F)nc2cc(C(=O)NC3CC3)c(Cl)cc21 (stereo not drawn) [Compound 317]					efficacy in % (Tetranychus urticae; application rate 500 g/ha): 100%; efficacy in % (Phaedon cochleariae; application rate 500 g/ha): 100%; efficacy in % (Spodoptera frugiperda; application rate 500 g/ha): 100%
CCn1c(C(=O)NC(c2cccc(C(F)(F)F)c2)C(F)(F)F)cc2cc(C(=O)NC3(C#N)CC3)c(C(C)C)cc21 (stereo not drawn) [Compound 319]		100	100		log p (logP (HPLC-MS); [3]): 4.08
